# Experimental data published in patent US12077503B2, “Substituted cyclic amides and their use as herbicides” (FMC CORPORATION, priority 2015, dated 2024).
# Key:
# Assay type in all cases: in vivo
# [1] = system: Kochia (Kochia scoparia); experiment: Test A preemergence; conditions: Bassia scoparia, pre-emergence, 240 h, Preemergence
# Method in brief: (§1)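 Visual injury scores from 0, no effect, to 100, complete control, were assigned versus untreated controls roughly 10 d after treatment in the greenhouse. Test chemicals, formulated with surfactant in a non-phytotoxic solvent, were applied to planted seeds as a preemergence soil spray or postemergence to one- to two-leaf plants 2 to 10 cm tall, in loam–sand soil.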
# [2] = system: pigweed (Amaranthus retroflexus); experiment: Test A preemergence; conditions: Amaranthus retroflexus, pre-emergence, 240 h, Preemergence
# [3] = system: ryegrass, Italian (Italian ryegrass, Lolium multiflorum); experiment: Test A preemergence; conditions: Lolium multiflorum, pre-emergence, 240 h, Preemergence
# Method in brief: as §1
# [4] = system: barnyardgrass (Echinochloa crus-galli); experiment: Test A preemergence; conditions: Echinochloa crus-galli, pre-emergence, 240 h, Preemergence
# Method in brief: as §1
# [5] = system: ragweed (common ragweed, Ambrosia elatior); experiment: Test A preemergence; conditions: Ambrosia artemisiifolia, pre-emergence, 240 h, Preemergence
# Method in brief: as §1
# [6] = system: giant foxtail (Setaria faberii); experiment: Test A preemergence; conditions: Setaria faberi, pre-emergence, 240 h, Preemergence
# Method in brief: as §1
# [7] = system: barnyardgrass (Echinochloa crus-galli); experiment: Test B flooded paddy test; conditions: Echinochloa crus-galli, 360 h, Flood, 250 g ai/ha; visually evaluated after 13 to 15 d; read-out: Plant response rating, Barnyardgrass (0 to 100 scale where 0 is no effect and 100 is complete control)
# Method in brief: (§2)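 Percent control, visually estimated after 13–15 d in the greenhouse on a 0–100 basis, compares treated pots with untreated ones; compound was put into paddy water 3 cm above the soil when plants had two leaves.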
# [8] = system: rice (Oryra sativa); experiment: Test B flooded paddy test; conditions: Oryza sativa, 360 h, Flood, 250 g ai/ha; visually evaluated after 13 to 15 d; read-out: Plant response rating, Rice (0 to 100 scale where 0 is no effect and 100 is complete control)
# Method in brief: as §2
# [9] = system: ducksalad (Heteranthera limosa); experiment: Test B flooded paddy test; conditions: Heteranthera limosa, 360 h, Flood, 250 g ai/ha; visually evaluated after 13 to 15 d; read-out: Plant response rating, Ducksalad (0 to 100 scale where 0 is no effect and 100 is complete control)
# Method in brief: as §2
# [10] = system: sedge, umbrella (small-flower umbrella sedge, Cyperus difformis); experiment: Test B flooded paddy test; conditions: Cyperus difformis, 360 h, Flood, 250 g ai/ha; visually evaluated after 13 to 15 d; read-out: Plant response rating, Sedge, Umbrella (0 to 100 scale where 0 is no effect and 100 is complete control)
# Method in brief: as §2
# [11] = system: Kochia (Kochia scoparia); experiment: Test A postemergence; conditions: Bassia scoparia, post-emergence, 240 h, Postemergence
# Method in brief: as §1
# [12] = system: pigweed (Amaranthus retroflexus); experiment: Test A postemergence; conditions: Amaranthus retroflexus, post-emergence, 240 h, Postemergence
# Method in brief: as §1
# [13] = system: ryegrass, Italian (Italian ryegrass, Lolium multiflorum); experiment: Test A postemergence; conditions: Lolium multiflorum, post-emergence, 240 h, Postemergence
# Method in brief: as §1
# [14] = system: barnyardgrass (Echinochloa crus-galli); experiment: Test A postemergence; conditions: Echinochloa crus-galli, post-emergence, 240 h, Postemergence
# Method in brief: as §1
# [15] = system: blackgrass (Alopecurus myosuroides); experiment: Test A postemergence; conditions: Alopecurus myosuroides, post-emergence, 240 h, Postemergence
# Method in brief: as §1
# [16] = system: corn (Zea mays); experiment: Test A postemergence; conditions: Zea mays, post-emergence, 240 h, Postemergence
# Method in brief: as §1
# [17] = system: Galium (catchweed bedstraw, Galium aparine); experiment: Test A postemergence; conditions: Galium, post-emergence, 240 h, Postemergence
# Method in brief: as §1
# [18] = system: wheat (Triticum aestivum); experiment: Test A postemergence; conditions: Triticum aestivum, post-emergence, 240 h, Postemergence
# Method in brief: as §1
# [19] = system: ragweed (common ragweed, Ambrosia elatior); experiment: Test A postemergence; conditions: Ambrosia artemisiifolia, post-emergence, 240 h, Postemergence
# Method in brief: as §1
# [20] = system: giant foxtail (Setaria faberii); experiment: Test A postemergence; conditions: Setaria faberi, post-emergence, 240 h, Postemergence
# Method in brief: as §1
compound,measurement,setting,value
CN1C[C@H](c2ccc(C(F)(F)F)cc2)[C@@H](C(=O)Nc2cccc(F)n2)C1=O [Compound 1400],pest or weed control at 31 g/ha,"[1]; 31 g ai/ha, 0 to 100 scale where 0 is no effect and 100 is complete control, read-out: Kochia plant response rating",60%
same,pest or weed control at 125 g/ha,"[1]; 125 g ai/ha, 0 to 100 scale (0 no effect, 100 complete control), read-out: Plant response rating, Kochia",70%
same,pest or weed control at 31 g/ha,"[2]; 31 g ai/ha, 0 to 100 scale where 0 is no effect and 100 is complete control, read-out: Pigweed plant response rating",80%
same,pest or weed control at 125 g/ha,"[2]; 125 g ai/ha, 0 to 100 scale (0 no effect, 100 complete control), read-out: Plant response rating, Pigweed",80%
same,pest or weed control at 31 g/ha,"[3]; 31 g ai/ha, 0 to 100 scale where 0 is no effect and 100 is complete control, read-out: Ryegrass, Italian plant response rating",0%
same,pest or weed control at 125 g/ha,"[3]; 125 g ai/ha, 0 to 100 scale (0 no effect, 100 complete control), read-out: Plant response rating, Ryegrass, Italian",30%
same,pest or weed control at 31 g/ha,"[4]; 31 g ai/ha, 0 to 100 scale where 0 is no effect and 100 is complete control, read-out: Barnyardgrass plant response rating",90%
same,pest or weed control at 125 g/ha,"[4]; 125 g ai/ha, 0 to 100 scale (0 no effect, 100 complete control), read-out: Plant response rating, Barnyardgrass",90%
same,pest or weed control at 31 g/ha,"[5]; 31 g ai/ha, 0 to 100 scale where 0 is no effect and 100 is complete control, read-out: Ragweed plant response rating",0%
same,pest or weed control at 125 g/ha,"[5]; 125 g ai/ha, 0 to 100 scale (0 no effect, 100 complete control), read-out: Plant response rating, Ragweed",70%
same,pest or weed control at 31 g/ha,"[6]; 31 g ai/ha, 0 to 100 scale where 0 is no effect and 100 is complete control, read-out: Foxtail, Giant plant response rating",90%
same,pest or weed control at 125 g/ha,"[6]; 125 g ai/ha, 0 to 100 scale (0 no effect, 100 complete control), read-out: Plant response rating, Foxtail, Giant",90%
same,pest or weed control at 250 g/ha,[7],80%
same,pest or weed control at 250 g/ha,[8],0%
same,pest or weed control at 250 g/ha,[9],100%
same,pest or weed control at 250 g/ha,[10],0%
same,pest or weed control at 31 g/ha,"[11]; 31 g ai/ha, 0 is no effect, 100 is complete control, read-out: Kochia plant response rating (0 to 100 scale)",30%
same,pest or weed control at 125 g/ha,"[11]; 125 g ai/ha, visual injury after approx. 10 d, 0 to 100 scale, 0 no effect, 100 complete control, read-out: Plant response rating, Kochia",70%
same,pest or weed control at 31 g/ha,"[12]; 31 g ai/ha, 0 is no effect, 100 is complete control, read-out: Pigweed plant response rating (0 to 100 scale)",50%
same,pest or weed control at 125 g/ha,"[12]; 125 g ai/ha, visual injury after approx. 10 d, 0 to 100 scale, 0 no effect, 100 complete control, read-out: Plant response rating, Pigweed",60%
same,pest or weed control at 31 g/ha,"[13]; 31 g ai/ha, 0 is no effect, 100 is complete control, read-out: Ryegrass, Italian plant response rating (0 to 100 scale)",30%
same,pest or weed control at 125 g/ha,"[13]; 125 g ai/ha, visual injury after approx. 10 d, 0 to 100 scale, 0 no effect, 100 complete control, read-out: Plant response rating, Ryegrass, Italian",50%
same,pest or weed control at 31 g/ha,"[14]; 31 g ai/ha, 0 is no effect, 100 is complete control, read-out: Barnyardgrass plant response rating (0 to 100 scale)",70%
same,pest or weed control at 125 g/ha,"[14]; 125 g ai/ha, visual injury after approx. 10 d, 0 to 100 scale, 0 no effect, 100 complete control, read-out: Plant response rating, Barnyardgrass",90%
same,pest or weed control at 31 g/ha,"[15]; 31 g ai/ha, 0 is no effect, 100 is complete control, read-out: Blackgrass plant response rating (0 to 100 scale)",30%
same,pest or weed control at 125 g/ha,"[15]; 125 g ai/ha, visual injury after approx. 10 d, 0 to 100 scale, 0 no effect, 100 complete control, read-out: Plant response rating, Blackgrass",70%
same,plant injury at 31 g/ha,"[16]; 31 g ai/ha, 0 is no effect, 100 is complete control, read-out: Corn plant response rating (0 to 100 scale)",20%
same,"Corn plant response rating (crop injury, 0 = no effect, 100 = complete kill) at 125 g/ha","[16]; 125 g ai/ha, visual injury after approx. 10 d, 0 to 100 scale, 0 no effect, 100 complete control",40%
same,pest or weed control at 31 g/ha,"[17]; 31 g ai/ha, 0 is no effect, 100 is complete control, read-out: Galium plant response rating (0 to 100 scale)",20%
same,pest or weed control at 125 g/ha,"[17]; 125 g ai/ha, visual injury after approx. 10 d, 0 to 100 scale, 0 no effect, 100 complete control, read-out: Plant response rating, Galium",70%
same,plant injury at 31 g/ha,"[18]; 31 g ai/ha, 0 is no effect, 100 is complete control, read-out: Wheat plant response rating (0 to 100 scale)",0%
same,plant injury at 125 g/ha,"[18]; 125 g ai/ha, visual injury after approx. 10 d, 0 to 100 scale, 0 no effect, 100 complete control, read-out: Plant response rating, Wheat",60%
same,pest or weed control at 31 g/ha,"[19]; 31 g ai/ha, 0 is no effect, 100 is complete control, read-out: Ragweed plant response rating (0 to 100 scale)",0%
same,pest or weed control at 125 g/ha,"[19]; 125 g ai/ha, visual injury after approx. 10 d, 0 to 100 scale, 0 no effect, 100 complete control, read-out: Plant response rating, Ragweed",50%
same,pest or weed control at 31 g/ha,"[20]; 31 g ai/ha, 0 is no effect, 100 is complete control, read-out: Foxtail, Giant plant response rating (0 to 100 scale)",70%
same,pest or weed control at 125 g/ha,"[20]; 125 g ai/ha, visual injury after approx. 10 d, 0 to 100 scale, 0 no effect, 100 complete control, read-out: Plant response rating, Foxtail, Giant",90%
